Our source for the IC50 values is patent US8901118B2, “Compounds and methods for kinase modulation, and indications therefor” (Plexxikon Inc., priority 2010, dated 2014).

Each structure is given as a SMILES string.

In one assay the target is TrkA kinase (Homo sapiens, UniProt P04629). As to the kind of experiment: TrkA kinase biochemical activity assay (AlphaScreen). As to conditions: 100 μM ATP; read-out: Biochemical Inhibition IC50 TrkA. Summed up: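 Recombinant TrkA with 30 nM biotin-(E4Y)10 and 100 μM ATP in 25 mM Hepes pH 7.5, 10 mM MnCl2, 5% DMSO, 40 min at room temperature. Phosphorylation read by AlphaScreen (streptavidin donor, PY20 acceptor beads); IC50 from signal vs compound concentration. TrkC run similarly.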
For orientation: In Alpha technology, singlet oxygen from a donor bead excites a nearby acceptor bead.

The target in a further assay is T1, CYP1A2 (Homo sapiens, UniProt P05177).
T1 sequence (P05177 1-516): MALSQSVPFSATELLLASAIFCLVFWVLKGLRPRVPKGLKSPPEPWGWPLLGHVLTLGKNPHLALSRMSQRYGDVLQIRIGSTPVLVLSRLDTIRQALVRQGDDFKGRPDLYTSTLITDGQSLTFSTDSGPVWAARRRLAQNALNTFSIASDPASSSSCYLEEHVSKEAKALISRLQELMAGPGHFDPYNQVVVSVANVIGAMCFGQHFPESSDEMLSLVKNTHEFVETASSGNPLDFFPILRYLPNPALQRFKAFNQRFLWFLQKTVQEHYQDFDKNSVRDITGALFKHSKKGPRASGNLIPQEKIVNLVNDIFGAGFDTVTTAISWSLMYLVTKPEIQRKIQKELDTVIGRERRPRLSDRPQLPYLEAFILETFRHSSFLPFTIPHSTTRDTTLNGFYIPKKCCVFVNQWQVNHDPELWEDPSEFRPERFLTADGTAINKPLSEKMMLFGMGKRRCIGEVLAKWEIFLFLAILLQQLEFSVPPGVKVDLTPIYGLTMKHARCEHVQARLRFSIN
As to the kind of experiment: CYP1A2 inhibition (fluorescent substrate CEC). The format is in vitro ADME. As to conditions: read-out: Cyp IC50 1A2. Summed up: (§1)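 Inhibition is measured as the drop in fluorescent metabolite formation across a 10-point compound titration with NADPH regeneration at 37 °C. Incubation lasts 15 min for CYP1A2, 45 min for CYP2C9 and 30 min for CYP2C19 and CYP2D6.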

For the next assay, the target named is CYP2C9 (Homo sapiens, UniProt P11712). As to the kind of experiment: CYP2C9 inhibition (fluorescent substrate MFC). The settings on record: read-out: Cyp IC50 2C9. Type of assay: in vitro ADME. Summed up:
as §1

A further assay concerns the target CYP2D6 (Homo sapiens, UniProt P10635). Kind of assay: CYP2D6 inhibition (fluorescent substrate AMMC). Type of assay: in vitro ADME. As to conditions: read-out: Cyp IC50 2D6. Summed up: as §1
The next assay addresses CYP3A4(BFC) (Homo sapiens, UniProt P08684). Kind of assay: CYP3A4(BFC) inhibition. As to conditions: CYP3A4, substrate BFC; read-out: Cyp IC50 3A4(BFC). Type of assay: in vitro ADME. Summed up: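 Inhibition of human CYP3A4 with the BFC substrate was measured by fluorescence loss of the metabolized product. Compounds at 100 mM in DMSO were diluted 1 μL into 82 μL acetonitrile, then 11 μL into 204 μL cofactor mix with NADPH regeneration solutions, and serially diluted 1:1 to 10 points. Plates were incubated 30 min at 37° C and read at 409 ex/460 em to obtain IC50.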

For a further assay, the target named is CYP3A4(BQ) (Homo sapiens, UniProt P08684). As to the kind of experiment: CYP3A4(BQ) inhibition. Type of assay: in vitro ADME. As to conditions: CYP3A4, substrate BQ; read-out: Cyp IC50 3A4(BQ). Summed up: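 Inhibition of human CYP3A4 (BQ substrate) was measured by fluorescence, since blocking metabolism of a known substrate lowers the fluorescent product signal. Compounds dissolved in DMSO at 100 mM were diluted into acetonitrile and then into NADPH regeneration cofactor mix, serially diluted 1:1 across 10 points, and preincubated in 384 well plates for 10 minutes at 37° C.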
CYP3A4(BQ), sequence (P08684 whole entry): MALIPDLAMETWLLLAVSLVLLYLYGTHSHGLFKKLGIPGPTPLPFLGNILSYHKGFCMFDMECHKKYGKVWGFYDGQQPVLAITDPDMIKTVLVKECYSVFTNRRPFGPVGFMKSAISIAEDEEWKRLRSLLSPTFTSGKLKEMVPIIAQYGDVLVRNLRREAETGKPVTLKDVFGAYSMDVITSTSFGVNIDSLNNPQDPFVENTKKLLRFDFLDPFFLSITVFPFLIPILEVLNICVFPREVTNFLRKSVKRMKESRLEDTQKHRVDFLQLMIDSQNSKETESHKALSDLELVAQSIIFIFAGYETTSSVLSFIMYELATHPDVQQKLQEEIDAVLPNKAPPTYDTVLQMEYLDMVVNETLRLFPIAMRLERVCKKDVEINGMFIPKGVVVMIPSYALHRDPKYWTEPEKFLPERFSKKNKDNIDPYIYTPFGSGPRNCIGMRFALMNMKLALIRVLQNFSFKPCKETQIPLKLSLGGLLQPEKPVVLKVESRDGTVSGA

CYP2D6, sequence (P10635 whole entry): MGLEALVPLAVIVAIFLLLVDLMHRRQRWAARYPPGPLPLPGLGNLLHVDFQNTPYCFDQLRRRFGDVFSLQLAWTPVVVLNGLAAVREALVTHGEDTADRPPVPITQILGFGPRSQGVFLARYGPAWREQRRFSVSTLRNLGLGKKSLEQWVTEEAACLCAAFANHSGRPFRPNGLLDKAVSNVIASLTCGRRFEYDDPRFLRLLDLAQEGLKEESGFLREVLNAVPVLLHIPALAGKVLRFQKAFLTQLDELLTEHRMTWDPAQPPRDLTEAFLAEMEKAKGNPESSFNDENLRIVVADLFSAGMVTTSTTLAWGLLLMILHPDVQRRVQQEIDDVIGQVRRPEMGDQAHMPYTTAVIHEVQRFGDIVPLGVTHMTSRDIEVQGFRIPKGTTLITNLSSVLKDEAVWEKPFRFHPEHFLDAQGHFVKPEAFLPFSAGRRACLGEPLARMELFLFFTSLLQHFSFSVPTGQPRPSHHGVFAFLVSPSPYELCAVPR
CYP3A4(BFC), sequence (P08684 whole entry): as the sequence (P08684 whole entry) above
CYP2C9, sequence (P11712 whole entry): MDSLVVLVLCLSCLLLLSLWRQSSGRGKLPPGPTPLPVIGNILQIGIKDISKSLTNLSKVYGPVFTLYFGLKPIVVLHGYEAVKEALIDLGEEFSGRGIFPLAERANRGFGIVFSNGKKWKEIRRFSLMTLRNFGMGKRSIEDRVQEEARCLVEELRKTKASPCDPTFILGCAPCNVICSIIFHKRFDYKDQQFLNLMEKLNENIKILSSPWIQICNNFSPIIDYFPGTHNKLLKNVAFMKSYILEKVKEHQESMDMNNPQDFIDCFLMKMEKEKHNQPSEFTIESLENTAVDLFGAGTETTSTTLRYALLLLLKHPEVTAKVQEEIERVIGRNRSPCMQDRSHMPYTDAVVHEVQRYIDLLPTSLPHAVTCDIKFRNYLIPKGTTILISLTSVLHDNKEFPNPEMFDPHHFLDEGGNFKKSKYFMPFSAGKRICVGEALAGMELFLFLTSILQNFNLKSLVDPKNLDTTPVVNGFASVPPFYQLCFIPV
TrkA kinase, sequence (P04629 33-796): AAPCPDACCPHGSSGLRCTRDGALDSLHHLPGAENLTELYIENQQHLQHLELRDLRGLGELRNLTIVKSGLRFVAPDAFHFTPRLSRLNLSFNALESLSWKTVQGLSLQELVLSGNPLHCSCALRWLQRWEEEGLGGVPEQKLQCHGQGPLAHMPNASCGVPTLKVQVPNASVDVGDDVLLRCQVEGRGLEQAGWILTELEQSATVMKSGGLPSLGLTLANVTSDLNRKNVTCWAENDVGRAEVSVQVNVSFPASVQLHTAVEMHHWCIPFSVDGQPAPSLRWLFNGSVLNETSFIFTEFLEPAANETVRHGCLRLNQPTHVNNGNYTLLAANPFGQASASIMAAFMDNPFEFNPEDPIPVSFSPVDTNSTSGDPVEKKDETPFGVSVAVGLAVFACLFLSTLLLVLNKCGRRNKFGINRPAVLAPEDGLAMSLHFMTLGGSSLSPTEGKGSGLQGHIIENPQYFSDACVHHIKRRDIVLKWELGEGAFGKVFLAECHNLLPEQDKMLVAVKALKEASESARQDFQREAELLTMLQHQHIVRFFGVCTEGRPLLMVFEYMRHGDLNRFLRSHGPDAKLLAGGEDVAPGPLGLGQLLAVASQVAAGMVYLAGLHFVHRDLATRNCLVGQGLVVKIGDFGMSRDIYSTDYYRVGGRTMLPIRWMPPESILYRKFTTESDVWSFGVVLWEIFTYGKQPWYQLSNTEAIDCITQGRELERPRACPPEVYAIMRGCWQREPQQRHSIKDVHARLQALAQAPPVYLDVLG

As usually defined, the IC50 is the point on the concentration scale where inhibition reaches its midpoint. As to `O=C(c1cnc(NC2CCC(F)(F)CC2)c(F)c1)c1c[nH]c2ncnc(NCC(F)(F)F)c12` [Compound P-4052, [6-[(4,4-difluorocyclohexyl)amino]-5-fluoro-3-pyridyl]-[4-(2,2,2-trifluoroethylamino)-7H-pyrrolo[2,3-d]pyrimidin-5-yl]methanone], the half-maximal inhibitory concentration (IC50) was under 1 µM at TrkA kinase; over 10 µM at CYP1A2; over 10 µM on CYP2C9; over 10 µM at CYP2D6; over 10 µM on CYP3A4(BFC); over 10 µM at CYP3A4(BQ).
With `CNc1ncnc2[nH]cc(C(=O)c3cnc(NC4CCC(F)(F)CC4)c(F)c3)c12` [Compound P-4054, [6-[(4,4-difluorocyclohexyl)amino]-5-fluoro-3-pyridyl]-[4-(methylamino)-7H-pyrrolo[2,3-d]pyrimidin-5-yl]methanone], the IC50 at TrkA kinase was under 0.1 µM; at CYP1A2, over 10 µM; on CYP2C9 it was over 10 µM; at CYP2D6 it was over 10 µM; at CYP3A4(BFC), over 10 µM; on CYP3A4(BQ) it was over 10 µM.
For `Fc1nc(Nc2ccc(C3CC3)nc2)ccc1Cc1c[nH]c2ncnc(C3CC3)c12` [Compound P-4041, (6-Cyclopropyl-pyridin-3-yl)-[5-(4-cyclopropyl-7H-pyrrolo[2,3-d]pyrimidin-5-ylmethyl)-6-fluoro-pyridin-2-yl]-amine], the IC50 at TrkA kinase is under 0.01 µM; at CYP1A2, 5 to 10 µM; at CYP2C9, 5 to 10 µM; on CYP2D6, over 10 µM; on CYP3A4(BFC) it was over 10 µM; on CYP3A4(BQ), 5 to 10 µM.
With `CCNc1ncnc2[nH]cc(C(=O)c3cnc(NC4CCC(F)(F)CC4)c(F)c3)c12` [Compound P-4051, [6-[(4,4-difluorocyclohexyl)amino]-5-fluoro-3-pyridyl]-[4-(ethylamino)-7H-pyrrolo[2,3-d]pyrimidin-5-yl]methanone], the IC50 on TrkA kinase is under 0.01 µM; at CYP1A2, over 10 µM; on CYP2C9, over 10 µM; on CYP2D6, over 10 µM; on CYP3A4(BFC), over 10 µM; at CYP3A4(BQ), over 10 µM.
Turning to `Nc1ncnc2[nH]cc(C(=O)c3ccc(NC4CCC(F)(F)CC4)nc3Cl)c12` [Compound P-4046, (4-amino-7H-pyrrolo[2,3-d]pyrimidin-5-yl)-[2-chloro-6-[(4,4-difluorocyclohexyl)amino]-3-pyridyl]methanone], the IC50 at TrkA kinase is under 1 µM.
On to `CCNc1ncnc2[nH]cc(C(=O)c3ccc(NC4CCC(F)(F)CC4)nc3Cl)c12` [Compound P-4050, [2-chloro-6-[(4,4-difluorocyclohexyl)amino]-3-pyridyl]-[4-(ethylamino)-7H-pyrrolo[2,3-d]pyrimidin-5-yl]methanone], for which the IC50 at TrkA kinase is under 1 µM; on CYP1A2 it was over 10 µM; on CYP2C9, over 10 µM; at CYP2D6, over 10 µM; on CYP3A4(BFC) it was over 10 µM; on CYP3A4(BQ), over 10 µM.
Consider `Nc1ncnc2[nH]cc(C(=O)c3ccc(Nc4ccc(C5CC5)nc4)nc3F)c12` [Compound P-4048, (4-amino-7H-pyrrolo[2,3-d]pyrimidin-5-yl)-[6-[(6-cyclopropyl-3-pyridyl)amino]-2-fluoro-3-pyridyl]methanone], for which the IC50 on TrkA kinase was under 0.01 µM; on CYP1A2, over 10 µM; on CYP2C9, over 10 µM; at CYP2D6, over 10 µM; at CYP3A4(BFC) it was over 10 µM; on CYP3A4(BQ), over 10 µM.
`O=C(c1ccc(Nc2ccc(C3CC3)nc2)nc1F)c1c[nH]c2ncnc(C3CC3)c12` [Compound P-4040, [6-(6-Cyclopropyl-pyridin-3-ylamino)-2-fluoro-pyridin-3-yl]-(4-cyclopropyl-7H-pyrrolo[2,3-d]pyrimidin-5-yl)-methanone]: at TrkA kinase, the IC50 was under 0.01 µM.
`O=C(c1cnc(NC2CCC(F)(F)CC2)c(F)c1)c1c[nH]c2ncnc(NC3CC3)c12` [Compound P-4053, [4-(cyclopropylamino)-7H-pyrrolo[2,3-d]pyrimidin-5-yl]-[6-[(4,4-difluorocyclohexyl)amino]-5-fluoro-3-pyridyl]methanone]: the IC50 at TrkA kinase was under 0.01 µM; at CYP1A2 it was over 10 µM; on CYP2C9, over 10 µM; at CYP2D6 it was over 10 µM; on CYP3A4(BFC), over 10 µM; at CYP3A4(BQ), over 10 µM.
With `CC(C)=CNc1ncnc2[nH]cc(C(=O)c3ccc(NC4CCC(F)(F)CC4)nc3Cl)c12` [Compound P-4047, [2-chloro-6-[(4,4-difluorocyclohexyl)amino]-3-pyridyl]-[4-(2-methylprop-1-enylamino)-7H-pyrrolo[2,3-d]pyrimidin-5-yl]methanone], the IC50 is over 1 µM at TrkA kinase; over 10 µM on CYP1A2; over 10 µM at CYP2C9; over 10 µM at CYP2D6; over 10 µM at CYP3A4(BFC); over 10 µM at CYP3A4(BQ).
`CC(C)(O)CNc1ncnc2[nH]cc(C(=O)c3ccc(Nc4ccc(C5CC5)nc4)nc3F)c12` [Compound P-4049, [6-[(6-cyclopropyl-3-pyridyl)amino]-2-fluoro-3-pyridyl]-[4-[(2-hydroxy-2-methyl-propyl)amino]-7H-pyrrolo[2,3-d]pyrimidin-5-yl]methanone]: the IC50 at TrkA kinase was under 0.01 µM; on CYP1A2 it was over 10 µM; on CYP2C9, 5 to 10 µM; at CYP2D6 it was over 10 µM; on CYP3A4(BFC), over 10 µM; on CYP3A4(BQ), over 10 µM.
In the case of `Cc1cnc2[nH]cc(Cc3ccc(NC4CCCCC4)nc3F)c2c1` [Compound P-3008, cyclohexyl-[6-fluoro-5-(5-methyl-1H-pyrrolo[2,3-b]pyridin-3-ylmethyl)-pyridin-2-yl]-amine], the IC50 on CYP1A2 was over 10 µM; on CYP2C9, 5 to 10 µM; on CYP2D6 it was over 10 µM; at CYP3A4(BFC), 5 to 10 µM.
